Source: the NIST ThermoML archive (doi:10.1016/j.jct.2010.12.021)

Experiments:
[1] = for viscosity / mass density: 101.33 kPa, Liquid; for viscosity: Falling or rolling sphere viscometry; for mass density: Vibrating tube method
[2] = Molar enthalpy of transition or fusion; settings: Crystal; DSC

CCCCCC[n+]1cccc2ccccc21.O=S(=O)([N-]S(=O)(=O)C(F)(F)F)C(F)(F)F [1-hexylquinolinium bis(trifluoromethylsulfonyl)amide]
[1]
Settings | mass density [kg/m3] | viscosity [mPa·s]
323.15 K | 1365.94 | 100.1
328.15 K | 1361.65 | 77.97
333.15 K | 1357.35 | 61.78
338.15 K | 1353.06 | 50.09
343.15 K | 1348.77 | 41.08
348.15 K | 1344.52 | 34.22

Settings | Normal melting temperature [°C]
[1], Crystal, DTA | 44.1

Settings | Molar enthalpy of transition or fusion [kcal/mol]
[2] | 15.2
